Experimental data published in patent publication US20070082066A1, “Use of zeaxanthin to reduce light hyper-sensitivity, photophobia, and medical conditions relating to light hyper-sensitivity” (priority 2003, published 2007).

Key:
Type in all cases: in vivo, human
[1] = test system: light hyper-sensitivity; assay: Customer and user reports on light hyper-sensitivity after taking zeaxanthin
Text: When asked about it by the Applicants herein, they offered answers that were usually along the lines of, “I hadn't noticed that. But yeah, you're right. I haven't been wearing my sunglasses as much as I used to. I just don't feel like I need them as much, or as often.”
At roughly the same time, the customer service specialist at ZeaVision also began to receive sporadic comments from people who had purchased zeaxanthin capsules to treat or prevent macular degeneration.
These discoveries led the customer support staff at ZeaVision to begin routinely asking customers about light hyper-sensitivity, if they called in and wanted to discuss the visual improvements they were enjoying after they began taking zeaxanthin.

[2] = test system: migraine or other severe headaches; assay: Customer reports on frequency of migraine or other severe headaches; details: a number of customers with migraine or recurrent headaches; zeaxanthin at 10 mg or more per day
[3] = test system: sunburns; assay: Summertime exposure to direct sunlight, sunburn protection; details: oral, about 30 to about 80 mg/day, summer of 2002, direct sunlight
Text: Instead, this discovery arose out of observations that were made while zeaxanthin was being tried and evaluated by a number of people, to determine whether it could help protect the skin against sunburns. Because of various factors and events described in a separate patent application (Ser. No. 10/356,134, Gierhart et al; the contents of that application are incorporated herein by reference, as though fully set forth herein), the founder of ZeaVision (who is also one of the Inventors herein) became convinced that relatively high dosages of zeaxanthin, in the range of about 30 mg or greater per day, could increase the skin's ability to withstand direct sunlight without suffering a sunburn. Accordingly, several coworkers began taking zeaxanthin at dosages in a range of about 30 to about 80 mg/day, during the summer of 2002, to provide additional evaluation of the earliest results that had been seen.
(§1) Therefore, a patent application entitled “Protection Against Sunburn and Skin Problems with Orally-Ingested High-Dosage Zeaxanthin”, was drafted and filed in the autumn of 2002, as a provisional application, based on anecdotal evidence from several people. […] After those test data became available, the provisional patent application on sunburn prevention was expanded into a utility application.

[4] = test system: skin; assay: Indoor tests with medical-grade ultraviolet lamp, before-and-after minimal erythemal dosages; details: high-dosage zeaxanthin, winter season
Text: as §1

[5] = Safety and tolerability in users taking zeaxanthin for macular degeneration; details: 20 mg/day, thousands of users over the past few years
Text: If no results are noticed at that level within about 2 to 4 weeks, the person can try a somewhat higher dosage during the next 2-4 weeks.

In the case of `CC1=C(/C=C/C(C)=C/C=C/C(C)=C/C=C/C=C(C)/C=C/C=C(C)/C=C/C2=C(C)C[C@@H](O)CC2(C)C)C(C)(C)C[C@H](O)C1` [zeaxanthin], the “light hyper-sensitivity, volunteered consumer comments” value ([1]; consumers who purchased zeaxanthin capsules to treat or prevent macular degeneration, after vs before taking) is reported as “suffering less from light hyper-sensitivity”, the “use of sunglasses when driving or outdoors” value ([1]; high-dosage zeaxanthin, several people working with ZeaVision, family members and friends, spring of 2003) is reported as “had stopped using their sunglasses so much” and the “unusual and unpleasant levels of light sensitivity, routine customer questioning” value ([1]; nearly all of the roughly 30% of customers who reported light sensitivity, after they began taking zeaxanthin capsules) is reported as “less severe and less troubling”. For the same compound, the “light sensitivity evaluated separately from vision clarity” value ([1]; nearly all patients who had reported increased light sensitivity, zeaxanthin at 10 mg or more per day) was “improved, significantly”, the “frequency of migraine or other severe headaches” value [2] was “didn't seem to be having as many migraine or other severe headaches” and the risk of sunburns [3] was “can indeed reduce the risk of sunburns”. For the same compound, the “skin-protective effects (minimal erythemal dosages before and after)” value [4] was “strongly confirmed the skin-protective effects” and the safety and tolerability [5] was “safe and well-tolerated”.
